Holding throughout (assay type): in vivo
In one data set the test system is DBA/1 CIA mice. Kind of data set: Arthritis score in mice with established CIA (treatment from day 16). An excerpt:
Rheumatoid Arthritis is a progressive joint deformation disease caused by severe inflammation. CIA mice were subjected to subcutaneous injections of TD-PC, tuftsin derivative (SEQ ID NO: 25), PC, a mix of TD and PC, or PBS, 3 times a week. […] Treatment started as day 16 after disease induction when disease symptoms were already notable. […] The significant reduction in arthritis score was illustrious from day 7 after treatment administration and lasted until day 35 (the day mice were sacrificed).

The subject of a further data set is male C57BL/6 mice. Kind of data set: DSS induced acute colitis in mice. The procedure:
The effect of PC-tuftsin derivative (SEQ ID NO: 25) on colitis development was determined in a mouse model subjected to induction of acute colitis by dextran sulfate sodium (DSS) treatment. Specifically, induction of colitis was carried out in male C57BL/6 mice (“colitis mice”) by supplementing the drinking water (2.5% wt/v) for five days with DSS (mol. wt. 36,000-50,000).
Two groups of mice were fed daily via oral ingestion using a feeding-needle, with PC-tuftsin derivative at a concentration of 500 μg/0.1 ml per mouse (treatment; n=10), or PBS (control; n=10). These compounds were given during 11 days starting two days before DSS administration.
Assessment of colitis development was performed by monitoring body weight, rectal bleeding, stool consistency, and survival every second day. Intestinal bleeding was followed by Hemoccult test and observation of bleeding signs on the anus or gross bleeding. The daily disease activity index (DAI) was calculated by grading on a scale of zero to four the following parameters: change in weight (0, <1%; 1, 1-5%; 2, 5-10%; 3, 10— 15%; and 4, >15%), intestinal bleeding (0, negative; 4, positive), and stool consistency (0, normal; 2, loose stools; 4, diarrhea). The combined scores were then divided by three to obtain the final disease activity index. Ten days following disease induction, mice were sacrificed and the large intestine was collected and evaluated for colon length and microscopic colonic damage. For microscopic scoring, the proximal, medial, and distal portions of the colon and the cecum were fixed in 10% phosphate-buffered formalin. Paraffin-embedded sections were stained with H&E. The degree of histological damage and inflammation was graded in a blinded fashion by an expert pathologist

The test system of the next data set is CIA mice. Kind of data set: Anti-collagen type II antibodies in sera of CIA mice. The following applies: day 30, sera dilution 1:200. As for the experimental part:
Titers of anti-collagen type II antibodies in mice sera at a dilution of 1:200 (OD at 405 nm) were measured at day 30 after disease induction while arthritis was fully manifested (FIG. 27). […] The mean OD level of the anti-collagen type II antibodies in the mice treated with TD-PC per os was 0.685±0.09 while the corresponding mean OD level in control mice treated with PBS per os was 1.09±0.17. Furthermore, the mean OD level of the anti-collagen type II antibodies in mice treated with TD-PC s.c was 0.615±0.08, whereas the corresponding mean OD level mice treated with PBS s.c was 1.03±0.13 (p<0.001).

In data set [1] the test system is splenocytes of NZBW/F1 female mice. Briefly: Cytokine secretion in-vitro by splenocytes of lupus mice treated with TD-PC. The following applies: vs PBS. As for the experimental part: NZBW/F1 female mice having lupus were treated with TD-PC (SEQ ID NO: 25 conjugated to PC) or the corresponding control treatments. Mice were sacrificed at week 30, and their splenocytes were studied in-vitro for the expression of pro-inflammatory cytokines (IFNγ, IL-17) and anti-inflammatory (TGFβ, IL-10) cytokines using RT-PCR. […] In contrast, TD-PC increased the mRNA expression of the anti-inflammatory cytokine TGFβ in the (p<0.001) compared to the mRNA expressed by splenocytes derived from PBS-treated mice (FIG. 24A).
However, a prominent increase in anti-inflammatory cytokines (TGFβ, IL-10) secretion in-vitro by splenocytes derived from TD-PC treated mice is illustrated in FIG. 24B. […] IFNγ secretion upon tuftsin derivative (SEQ ID NO: 25) or PC treatments was reduced by 2.5 and 1.5 times respectively (p<0.03 and p<0.04, respectively).

Data set [2] deals with CD4+CD25+FOXP3+ Treg cells. Briefly: Treg expansion in splenocytes of CIA mice (FACS), Example 16. The following applies: vs PBS. An excerpt:
The frequency of CD4+CD25+FOXP3+ Treg cells subset in isolated mice splenocytes, following treatment with TD-PC or control (PBS) is elucidated in FIGS. 29A-29B. […] Representative data of the CD4+CD25+FOXP3+ levels in splenocytes derived from TD-PC and PBS treated mice gating on CD4+ T cells are presented in FIG. 29A and the corresponding statistics is presented in FIG. 29B.

For data set [3], the system named is splenocytes derived from CIA mice. Kind of data set: Cytokine secretion in-vitro by splenocytes of CIA mice (oral and s.c. TD-PC). The following applies: splenocyte culture fluids. As for the experimental part: Cytokines play a major role in synovial inflammation while the major ones are IL-17, TNFα and IL-1. Secretion of pro-inflammatory (TNFα, IL-1β, IL-17) and anti-inflammatory cytokines (IL-10) by splenocytes derived from CIA mice treated with TD-PC or PBS (control), in-vitro, was evaluated.
Furthermore, TD-PC increased the level of anti-inflammatory cytokine IL-10 in a significant manner compared to control mice (p<0.0001; FIG. 28D and Table 3).

The next data set has as its system Breg cells. Kind of data set: Breg expansion in splenocytes of CIA mice (FACS), Example 17. The following applies: subsets CD19+IL-10+TIM-1+ and IL-10highCD5highCD1dhigh; vs PBS. As for the experimental part: The mean percentage of Breg cells in isolated splenocytes following treatment with TD-PC or PBS was measured within two main subsets CD19+IL-10+TIM-1+ (representative data: FIG. 30A, statistics: FIG. 30C, n=15) and IL-10^highCD5^highCD1d^high (representative data: FIG. 30B, statistics: FIG. 30D, n=15).

Where [4] appears, read: 500 μg/0.1 ml oral daily, vs PBS.

This note sets out measurements from US12350308B2, “Phosphorylcholine conjugates and uses thereof” (TPCERA LTD., priority 2013, dated 2025).

*1 amine or outer side, *2 acyl side, *3 side chain or, on linkers, in order; H or OH if unused. Where a SMILES comes first, the peptide text is derived from it. [ ]: non-standard residue; d: D form. X1 = C[N+](C)(C)CCOP(=O)([O-])Oc1ccc(N=Nc2cc(C[C@H](N[*:1])C(=O)[*:2])ccc2O)cc1

In the data set with DBA/1 CIA mice (day 35, s.c. 3 times a week, PBS 13.8±0.45), `C[C@@H](O)[C@H](N)C(=O)N[C@@H](CCCCN)C(=O)N1CCC[C@H]1C(=O)N[C@@H](CCCNC(=N)N)C(=O)NCC(=O)N[C@@H](Cc1ccc(O)c(N=Nc2ccc(OP(=O)([O-])OCC[N+](C)(C)C)cc2)c1)C(=O)O` [TD-PC, Thr-Lys-Pro-Arg-Gly-Tyr-PC] (H-TKPRG[X1]-OH) displayed a mean arthritis score of 6.8±0.8. The compound further registered an average arthritis score with DBA/1 CIA mice (time 0 (treatment initiation, day 16 after disease induction), baseline) of 3.6±0.9. Further, in the data set with male C57BL/6 mice (500 μg/0.1 ml oral daily, day 8, PBS 2.6 after 5 days), the “daily disease activity index (DAI) score” value is reported as “around 0.9”. Besides, in the data set with male C57BL/6 mice (setting [4]), the loss of weight result was “significantly low”, the rectal bleeding result was “significantly low” and the survival entry is reported as “significantly higher survival”. For the same compound, the colon length entry in the data set on male C57BL/6 mice (PBS mice five-six cm) is listed as “eight”. The “histological analysis of colon sections (H&E)” value with male C57BL/6 mice (vs PBS) is listed as “attenuated colon destruction”. Moreover, the “mean OD level of anti-collagen type II antibodies” value with CIA mice (per os, PBS 1.09±0.17) turned out to be 0.685±0.09 OD at 405 nm. Further, the “mean OD level of anti-collagen type II antibodies” value in the data set with CIA mice (s.c, PBS 1.03±0.13) came out at 0.615±0.08 OD at 405 nm. In addition, the “IL-17 secretion from splenocytes” value in data set [1] (in vitro) was “significant decline”. Also, in data set [1] (in-vitro), the “IL-10 secretion by splenocytes” value was “remarkably increased”, the “TGFβ production by splenocytes” value is “significantly upregulated” and the “reduction of splenocyte secretion of IFNγ” value amounted to 5.2 times. In data set [2], the “CD4+CD25+FOXP3+ Treg cells in isolated splenocytes” value is recorded as “striking increase”. Also, in data set [3] (oral), the IL-1β came to 183 pg/mL, the IL-10 amounted to 3605 pg/mL, the IL-17 was 505 pg/mL and the TNFα was 633 pg/mL. In data set [3] (s.c.), this compound returned an IL-1β of 198 pg/mL, an IL-10 of 2917 pg/mL, an IL-17 of 497 pg/mL and a TNFα of 621 pg/mL. The “Breg phenotype expansion in isolated splenocytes” value in the data set with Breg cells is “significantly stimulated”.
